Entries after “also recorded” stand apart in the source; their conditions may differ.
Columns and labels:
[1] = tested on: MCF7 (human breast adenocarcinoma); assay: Calcein AM cytotoxicity assay, MCF7; format: cell-based
Description: (§1) Cytotoxicity of the compounds is the major property determining their anticancer effect in vivo. One of the parameters used, as the basis for cytotoxicity assays, is the metabolic activity of viable cells. For example, a microtiter assay, which uses the Calcein AM, is now widely used to quantitate cell proliferation and cytotoxicity. For instance, this assay is used in drug screening programs and in chemosensitivity testing. Because only metabolically active cells cleave Calcein AM, these assays detect viable cells exclusively. The quantity of cleaved Calcein AM corresponds to the number of vital cells in the culture. We have been using the following cell lines: MCF7 (human breast adenocarcinoma), K562 (human chronic myelogenous leukaemia), HOS (human osteogenic sarcoma), HeLa (human cervical carcinoma), HL 60 (human promyelocytic leukaemia), G 361 (human malignant melanoma), CEM (human lymphoblastoid leukaemia). All cell lines were grown in DMEM medium (Gibco BRL) supplemented with 10% (v/v) fetal bovine serum and L-glutamine and maintained at 37° C. in a humidified atmosphere with 5% CO2. For cytotoxicity assays, 10^4 cells were seeded into each well of 96 well plate, allowed to stabilize for at least 2 h and then tested compounds were added at various concentrations ranging from 100 to 0.1 μM in triplicates. Three days after drug addition Calcein AM solution (Molecular Probes) was added and let to enter the cells for 1 hour. Fluorescence of viable cells was quantified using Fluoroskan Ascent (Microsystems).

[2] = tested on: C-terminal domain of RNA polymerase II (serine 2 and serine 5 phosphorylation); assay: Immunoblotting of RNA polymerase II CTD phosphorylation (CDK9 activity in cells), MCF-7; format: cell-based, human; details: MCF-7 cells
Procedure: Effect of compounds on CDK9 activity in cells was monitored by site-specific phosphorylations of C-terminal domain of RNA polymerase II, a substrate of CDK9, by means of immunoblotting. For immunoblotting, cell were detached with rubber policeman and washed three times with ice-cold PBS and lysed in buffer (50 mM Tris, pH 7.4, 250 mM NaCl, 5 mM EDTA, 50 mM NaF, 1 mM Na3VO4, 1% Nonidet P40) containing mixture of protease and phosphatase inhibitors (Sigma-Aldrich, USA). 20 μg of total proteins were separated by SDS-polyacrylamide gel electrophoresis (SDS-PAGE) and transferred onto nitrocellulose membranes. Membranes were blocked in 5% milk and 0.1% Tween 20 in PBS and probed overnight with specific monoclonal antibodies or rabbit polyclonal sera. Primary antibodies specific for RNA polymerase II (all from Santa Cruz Biotechnology, California, USA) included: (i) N-20 used at 1 μg/ml, (ii) H14, specific for form phosphorylated at phosphoserine 5, used at 6 μg/ml and (iii) H5, specific for form phosphorylated at phosphoserine 2 used at 4 μg/ml. […] All primary antibodies were diluted in PBS containing 5% powdered milk; 0.1% Tween 20. Peroxidase conjugated rabbit anti-mouse immunoglobulin or porcine anti-rabbit immunoglobulin antisera (DAKO, Denmark) were used as the secondary antibodies and visualised with ECL reagents (Amersham-Pharmacia, Little Chalfont, UK). […]

CDK2/cyclin E = target: T1, CDK2/cyclin E (Homo sapiens, UniProt P24941); assay: CDK2/cyclin E kinase inhibition assay; format: biochemical
T1 construct: made in house; host or cells: Sf9 insect cells, baculovirus co-infection
Procedure: (§2) Selected compounds were tested for CDK1/cyclin B, CDK2/cyclin E, CDK5/p25, CDK7/cyclin H and CDK9/cyclin T inhibitory activity to determine the basic relationships between their structure and the inhibitory activity. Cdk/cyclin complexes were expressed in Sf9 cells co-infected with appropriate baculoviral construct. The cells were harvested 70 hours post infection in lysis buffer (50 mM Tris pH 7.4, 150 mM NaCl, 5 mM EDTA, 20 mM NaF, 1% Tween 20, protease inhibitors) for 30 min on ice and the soluble fraction was recovered by centrifugation at 14.000 g for […]. The protein extract was stored at −80° C. until use. The final point test system for kinase activity measurement was used to carry out experiments on the kinetics under linear conditions. […] ATP and tested compound in a final volume of 20 μl, all in reaction buffer: 50 mM Hepes pH 7.4, 10 mM MgCl2, 5 mM EGTA, 10 mM 2-glycerolphosphate, 1 mM NaF, 1 mM DTT and protease inhibitors. After 30 min, the incubations were stopped by adding 5% H3PO4 and then the proteins were separated by phosphocellulose binding. The measurement of kinase inhibition employed the digital imaging analyzer BAS 1800. The kinase activity was expressed as a percentage of maximum activity and the IC50 value was determined by graphic analysis. The kinase activity is expressed as a percentage of maximum activity (FIG. 1).

[3] = tested on: HOS (human osteogenic sarcoma); assay: Calcein AM cytotoxicity assay, HOS; format: cell-based; details: Homo sapiens, read-out: Cytotoxic activity IC50 (μM) HOS
Description: as §1

p53 in RPMI-8226 cells = assay: Immunoblotting in RPMI-8226 cells with temperature-sensitive p53 (E285K) at permissive and restrictive temperature; format: cell-based, human
Procedure: For immunoblotting, cell were detached with rubber policeman and washed three times with ice-cold PBS and lysed in buffer (50 mM Tris, pH 7.4, 250 mM NaCl, 5 mM EDTA, 50 mM NaF, 1 mM Na3VO4, 1% Nonidet P40) containing mixture of protease and phosphatase inhibitors (Sigma-Aldrich, USA). 20 μg of total proteins were separated by SDS-polyacrylamide gel electrophoresis (SDS-PAGE) and transferred onto nitrocellulose membranes. Membranes were blocked in 5% milk and 0.1% Tween 20 in PBS and probed overnight with specific monoclonal antibodies or rabbit polyclonal sera. […] All primary antibodies were diluted in PBS containing 5% powdered milk; 0.1% Tween 20. Peroxidase conjugated rabbit anti-mouse immunoglobulin or porcine anti-rabbit immunoglobulin antisera (DAKO, Denmark) were used as the secondary antibodies and visualised with ECL reagents (Amersham-Pharmacia, Little Chalfont, UK).
Then, we also determined effect of the compounds on the cell lines expressing some temperature-sensitive mutants of p53. For example, in BT474 and RPMI-8226 cells bearing temperature-sensitive mutant of p53 (E285K), p53 protein switches between mutant and wild-type conformation in a temperature-dependent manner. At restrictive (37° C.) temperature mutated p53 protein is expressed, while after shift to a permissive (30° C.) temperature p53 is folded correctly and functional. To analyze the functional involvement of p53 in the efficiency of the treatment with the compounds, we cultivated RPMI-8226 cells independently at two different temperatures (restrictive or permissive), and exposed them to increasing doses of selected compounds. The cell lysates were prepared and the levels of cell cycle regulators were analysed by immunoblotting.

CDK9/cyclin T = target: T2, CDK9/cyclin T (Homo sapiens, UniProt P50750); assay: CDK9/cyclin T kinase inhibition assay; format: biochemical; details: kinase inhibitory activity, 15 μM ATP, (YSPTSPS)3 peptide substrate
T2 construct: made in house; host or cells: Sf9 insect cells, baculovirus co-infection
Procedure: as §2

T2 sequence (P50750 whole entry, species assumed): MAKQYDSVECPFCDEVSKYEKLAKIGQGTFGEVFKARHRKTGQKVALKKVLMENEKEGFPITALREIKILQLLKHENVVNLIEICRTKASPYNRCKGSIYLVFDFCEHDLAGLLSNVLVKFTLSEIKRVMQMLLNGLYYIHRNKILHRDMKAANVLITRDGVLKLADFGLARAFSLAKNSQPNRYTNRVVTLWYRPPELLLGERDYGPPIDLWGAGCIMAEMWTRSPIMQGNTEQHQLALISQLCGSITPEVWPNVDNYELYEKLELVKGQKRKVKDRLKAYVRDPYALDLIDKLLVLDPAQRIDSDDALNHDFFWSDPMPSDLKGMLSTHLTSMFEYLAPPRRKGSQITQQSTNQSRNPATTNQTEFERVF
T2 sequence (O60563 whole entry partner, species assumed): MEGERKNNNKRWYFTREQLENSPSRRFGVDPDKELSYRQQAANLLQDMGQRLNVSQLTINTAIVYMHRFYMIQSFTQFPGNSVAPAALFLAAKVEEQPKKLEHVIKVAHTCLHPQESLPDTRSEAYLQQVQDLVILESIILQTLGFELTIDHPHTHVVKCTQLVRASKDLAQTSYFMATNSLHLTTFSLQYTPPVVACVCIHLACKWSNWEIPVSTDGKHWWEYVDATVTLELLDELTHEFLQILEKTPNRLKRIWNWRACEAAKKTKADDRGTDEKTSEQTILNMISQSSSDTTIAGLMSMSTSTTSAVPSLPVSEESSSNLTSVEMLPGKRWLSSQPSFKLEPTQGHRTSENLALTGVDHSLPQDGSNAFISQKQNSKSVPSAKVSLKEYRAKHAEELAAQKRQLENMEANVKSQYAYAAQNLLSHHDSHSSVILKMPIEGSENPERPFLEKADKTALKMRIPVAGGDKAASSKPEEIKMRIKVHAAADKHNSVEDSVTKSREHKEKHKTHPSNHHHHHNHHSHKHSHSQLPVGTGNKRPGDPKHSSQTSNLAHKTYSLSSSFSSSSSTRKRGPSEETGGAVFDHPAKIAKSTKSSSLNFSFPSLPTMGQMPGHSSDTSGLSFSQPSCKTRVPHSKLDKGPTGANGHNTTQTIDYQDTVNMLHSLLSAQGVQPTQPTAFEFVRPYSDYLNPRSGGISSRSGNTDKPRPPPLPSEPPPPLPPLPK

## CCC(CO)Nc1nc(NCc2cccc(OC)c2O)c2ncn(C(C)C)c2n1 (racemic) [Compound 128, (RS)-2-({6-[(2-hydroxy-3-methoxybenzyl)amino]-9-isopropyl-9-H-purin-2-yl}amino)butan-1-ol]
[1]; Homo sapiens, MCF7, read-out: Cytotoxic activity IC50 (μM) MCF7
  IC50: 5 µM
[1]; MCF7, 72 h
  number of viable cells (antiproliferative activity): significantly reduces the number of living cells
[2]
  levels of serine 2 and serine 5 phosphorylation of RNA polymerase II CTD: substantially reduced; also recorded: is inhibited
CDK2/cyclin E; CDK2/cyclin E
  inhibition of kinase activity (FIG. 1): inhibition of the CDK2/cyclin E kinase activity
CDK2/cyclin E; kinase inhibitory activity, 15 μM ATP, histone substrate
  IC50: 0.07 µM
[3]
  IC50: 5.9 µM
p53 in RPMI-8226 cells; RPMI-8226 cells
  drug concentration causing fragmentation of PARP-1, permissive versus restrictive temperature: about two-fold lower drug concentrations
p53 in RPMI-8226 cells; RPMI-8226 cells at permissive (30° C.) temperature
  level of wild-type p53 protein: caused accumulation of wild-type p53 protein
p53 in RPMI-8226 cells; RPMI-8226 cells at restrictive (37° C.) temperature
  level of mutant p53: did not change the levels of mutant p53
p53 in RPMI-8226 cells; RPMI-8226 cells, 30° C. versus restrictive temperature
  expression of anti-apoptotic protein Mcl-1: suppressed more efficiently at 30 °C
CDK9/cyclin T
  IC50: 0.04 µM
